The text below walks through data of ChEMBL document CHEMBL1201862, “PubChem BioAssay data set” (2004).

SMILES strings stand for the structures.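 How tested: cells in 96-well plates exposed to compound for 48 hours at five concentrations. GI50 is the concentration that inhibits growth by half.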 Activity calls are given as the source filed them. Cut-off read from the data, not from the text of the source: active = GI50 up to about 1.1 µM and inactive = higher.

Some test systems named below: RPMI-8226; HCT-15; 786-0; Hs-578T; SF-295; DU-145; EKVX; UO-31; SK-OV-3; T47D; U-251; SNB-75; PC-3; MCF7; LXFL 529; TK-10; SF-539; OVCAR-5; NCI-H522; COLO 205.
What all share (assay): NCI-60 cell line screen, 48 h

Consider `COc1cccc2c1C(=O)c1c(O)c3c(c(O)c1C2=O)C[C@@](O)(C(C)=O)C[C@@H]3OC1CC(N(C)C)C(O)C(C)O1` (stereo not given in full), for which the GI50 in the assay with RPMI-8226 was 11.3 nM (active); in the assay on HCT-15, 3.89 nM; in the assay with 786-0 it was 56.2 nM (active); with Hs-578T it was 0.123 nM (active); with SF-295, 4.25 nM (active); in the assay on DU-145, 0.785 nM (active). For the same molecule, the GI50 with EKVX was 4.85 nM (active); in the assay on UO-31, 3.71 nM (active); in the assay with SK-OV-3 it was 5.93 nM (active); in the assay with T47D, 0.196 nM (active); with U-251 it was 4.25 nM (active); in the assay with SNB-75, 3.46 nM (active). The GI50 is 0.206 nM (active) in the assay on PC-3; 10 nM (active) with MCF7; 6.84 nM (active) with LXFL 529; 5.14 nM (active) in the assay on TK-10; 4.17 nM (active) with SF-539; 5.77 nM (active) in the assay on OVCAR-5. In addition, the GI50 in the assay with NCI-H522 was 4.6 nM (active); in the assay on COLO 205, 4.28 nM (active).
